Series [1] is described as follows: pH‐potentiometric determination of ligand protonation constants. The class given is physicochemical. Particulars: I = 0.15 M NaCl, T = 25 °C. Here is the method: The equilibrium study of the PC2AM^nBu ligand has been started by determining the protonation constants in 0.15 M and 1.00 M NaCl ionic strength. (As the stability of the Sc(III) complex was determined in 1.00 M ionic strength, we had to perform the pH‐potentiometric titration of ligands using 1.00 M ionic strengths also.) The results of pH‐potentiometric measurement are shown in Table 1, where the corresponding data for 3,9‐PC2A,^[ [42] ^] PCTA ^[ [46] ^] and PC2AM‐NI ligands determined under identical conditions are also presented. Knowledge of the protonation constants defined by Eqn. 1 and 2 are essential for the calculation of the stability constants of the Sc(III) complexes:
(1) PC2AM^nBu^2−+nH^+⇌Hn(PC2AM^nBu)^−2+n (2) βn=HnPC2AM^nBu^−2+n/PC2AM^nBu^2−H^+^n
The protonation constants of the ligands, as well as the concentrations of the ligand stock solutions, were determined by pH‐potentiometric method using a Metrohm 785 DMP Titrino automatic titrator using a Metrohm 6.00234.100 combined glass electrode. The titrations were carried out in the pH range 1.75–11.80 and the pH electrode was calibrated by a two‐point calibration routine with the use of 0.05 M KH‐phthalate (pH = 4.005) and 0.01 M borax (pH = 9.177 buffers. The samples were stirred at 25 °C (±0.1 °C) and N2 gas bubbled into the system to ensure inert conditions and to eliminate the effect of the presence of CO2. For the calculation of [H^+] from the measured pH values, the method proposed by Irving et al. was applied.^[ [61] ^] For this, a 0.01 M HCl solution was titrated with the standardized NaOH solution in the presence of 0.15 M NaCl ionic strength at 25 °C. The differences between the measured (pHread) and calculated pH (‐log[H^+]) values were used to obtain the equilibrium H^+ concentration from the pHmeas values during the titrations. By fitting the resulting titration curves (pH – V (NaOH) data pairs) with the PSEQUAD program, the protonation constants of the ligands were determined.^[ [47] ^] The titration of the [Sc(PC2AM^nBu)]^+ with NaOH was performed with the same method by applying very similar conditions.

The conditions of series [2]: I = 0.15 M NaCl, T = 25 °C; cited from earlier work.

This is an account of results in article PMC12731536, “Sc(III) Complexes of Pyclen Derivative Ligands as Probes for Hypoxia: Synthesis, Chemical Characterization, ^44Sc‐Radiolabeling, and Preclinical Assessment” (Chemistry (Weinheim an Der Bergstrasse, Germany), 2025).

Molecules are shown by their SMILES. Like-named read-outs stand apart in the source and are kept apart here.

In the case of `O=C(O)CN1CCN(CC(=O)NCCCCCCn2ccnc2[N+](=O)[O-])CCN(CC(=O)O)Cc2cccc(n2)C1` [PC2AM‐NI], in series [1], the “log K 1 ^H” value is on record as 8.60(3), the “log K 2 ^H” value is reported as 7.39(3), the “log K 3 ^H” value is on record as 2.28(3) and the “log K 4 ^H” value is listed as 1.58(3). In addition, the “log β 2 ^H” value in series [1] was 15.99.
For `O=C(O)CN1CCNCCN(CC(=O)O)Cc2cccc(n2)C1` [3,9‐PC2A], in series [2], the “log K 1 ^H” value is 12.25, the “log K 2 ^H” value was 5.97, the “log K 3 ^H” value is recorded as 3.47 and the “log K 4 ^H” value was 1.99. Moreover, the “log β 2 ^H” value in series [2] is given as 18.22.
